Measurements: PMC12307932, “Convergent evolution of distinct D-ribulose utilisation pathways in attaching and effacing pathogens” (Nature Communications, 2025)
Where two headings read alike, the source gives them in different places.

Target: T1, AauA (Escherichia coli, UniProt Q8X6A6)
T1 construct: gene ECs_0374
Assay: isothermal titration calorimetry
Format: binding

T1 sequence (Q8X6A6 29-328 limits assumed): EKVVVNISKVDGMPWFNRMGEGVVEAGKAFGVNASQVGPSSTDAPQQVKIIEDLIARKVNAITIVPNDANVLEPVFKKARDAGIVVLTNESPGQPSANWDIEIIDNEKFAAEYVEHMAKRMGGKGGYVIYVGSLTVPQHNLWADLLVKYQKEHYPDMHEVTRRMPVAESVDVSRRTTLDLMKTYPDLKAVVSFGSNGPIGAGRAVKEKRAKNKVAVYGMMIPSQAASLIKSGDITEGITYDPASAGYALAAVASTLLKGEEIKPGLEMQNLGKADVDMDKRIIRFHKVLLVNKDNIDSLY

SMILES | Kd (50 mM HEPES, 150 mM NaCl, pH 7.0, 25 °C, 70 µM AauA, single-site model) [µM] | Kd [µM]
OC1OC[C@H](O)[C@H](O)[C@H]1O (some centres unmarked) [ʟ-arabinose] | 598 ± 132 | 
O=C(CO)[C@H](O)[C@H](O)CO [D-ribulose] |  | 1.98 ± 0.3
